The nature of series [1]: Clearance in RARG2-/-gammac-/- Balb/c mouse at 5 mg/kg, iv administered as single dose by LC-MS/MS analysis. To be noted: in vivo. The series is classed as ADME, organism-based.
Series [2] can be described thus: Metabolic stability in mouse liver microsomes assessed as parent compound remaining at 1 uM preincubated for 10 mins followed by NADP addition after 20 mins by LC-MS/MS analysis. The series is classed as ADME, microsome. To be noted: read-out: Stability. For orientation: Microsomes from liver hold many membrane-bound enzymes, among them those of drug oxidation.
The target in series [3] is T1, Histone-lysine N-methyltransferase EHMT1 (Homo sapiens, UniProt Q9H9B1).
T1 sequence (Q9H9B1 whole entry): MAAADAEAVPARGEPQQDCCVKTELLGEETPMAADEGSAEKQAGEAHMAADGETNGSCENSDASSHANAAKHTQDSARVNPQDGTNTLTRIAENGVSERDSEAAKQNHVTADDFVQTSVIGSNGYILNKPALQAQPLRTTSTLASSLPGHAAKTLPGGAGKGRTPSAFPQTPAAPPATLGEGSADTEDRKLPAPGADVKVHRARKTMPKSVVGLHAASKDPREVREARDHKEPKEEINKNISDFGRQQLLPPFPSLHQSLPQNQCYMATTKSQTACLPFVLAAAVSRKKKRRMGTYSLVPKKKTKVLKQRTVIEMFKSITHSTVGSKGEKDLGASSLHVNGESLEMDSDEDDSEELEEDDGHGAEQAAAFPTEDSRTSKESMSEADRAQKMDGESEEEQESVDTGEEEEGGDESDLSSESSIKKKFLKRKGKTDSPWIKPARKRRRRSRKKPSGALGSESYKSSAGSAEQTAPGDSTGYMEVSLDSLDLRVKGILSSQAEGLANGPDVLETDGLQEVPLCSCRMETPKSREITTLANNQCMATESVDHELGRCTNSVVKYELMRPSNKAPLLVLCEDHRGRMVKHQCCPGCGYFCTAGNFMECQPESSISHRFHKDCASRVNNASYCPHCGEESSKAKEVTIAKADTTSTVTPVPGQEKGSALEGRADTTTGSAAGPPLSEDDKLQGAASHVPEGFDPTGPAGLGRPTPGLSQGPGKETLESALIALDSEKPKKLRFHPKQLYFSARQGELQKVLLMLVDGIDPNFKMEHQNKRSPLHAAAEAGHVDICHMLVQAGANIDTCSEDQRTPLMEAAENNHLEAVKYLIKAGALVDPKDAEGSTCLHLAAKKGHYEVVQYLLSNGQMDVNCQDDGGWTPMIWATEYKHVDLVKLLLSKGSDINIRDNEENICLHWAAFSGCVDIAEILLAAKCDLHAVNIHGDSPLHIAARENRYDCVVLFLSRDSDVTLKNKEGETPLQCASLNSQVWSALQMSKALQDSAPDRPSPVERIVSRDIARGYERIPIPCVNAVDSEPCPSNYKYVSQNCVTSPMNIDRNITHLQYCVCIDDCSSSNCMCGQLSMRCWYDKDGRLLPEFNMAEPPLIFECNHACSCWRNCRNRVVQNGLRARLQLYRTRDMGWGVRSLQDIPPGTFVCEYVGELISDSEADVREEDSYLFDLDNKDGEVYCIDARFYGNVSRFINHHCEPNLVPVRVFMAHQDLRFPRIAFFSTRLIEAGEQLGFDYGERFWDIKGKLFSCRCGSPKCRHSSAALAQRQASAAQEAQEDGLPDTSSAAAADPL
As to the kind of experiment: Inhibition of recombinant human GLP using histone H3 peptide as substrate after 120 mins in presence of [3H]SAM by radiometric assay.

Series [4] in a line: Volume of distribution at steady state in RARG2-/-gammac-/- Balb/c mouse at 5 mg/kg, iv administered as single dose by LC-MS/MS analysis. In kind it is ADME, organism-based. To be noted: in vivo, read-out: Vdss.
A short description of series [5]: Permeability of the compound at 50 uM after 18 hrs by PAMPA. The series is classed as ADME. To be noted: read-out: permeability. On the technique in general: The PAMPA barrier holds no transporters, so it reflects passive diffusion.
The next series concerns the target T2, CYP1A2 (Homo sapiens, UniProt P05177).
T2 sequence (P05177 whole entry): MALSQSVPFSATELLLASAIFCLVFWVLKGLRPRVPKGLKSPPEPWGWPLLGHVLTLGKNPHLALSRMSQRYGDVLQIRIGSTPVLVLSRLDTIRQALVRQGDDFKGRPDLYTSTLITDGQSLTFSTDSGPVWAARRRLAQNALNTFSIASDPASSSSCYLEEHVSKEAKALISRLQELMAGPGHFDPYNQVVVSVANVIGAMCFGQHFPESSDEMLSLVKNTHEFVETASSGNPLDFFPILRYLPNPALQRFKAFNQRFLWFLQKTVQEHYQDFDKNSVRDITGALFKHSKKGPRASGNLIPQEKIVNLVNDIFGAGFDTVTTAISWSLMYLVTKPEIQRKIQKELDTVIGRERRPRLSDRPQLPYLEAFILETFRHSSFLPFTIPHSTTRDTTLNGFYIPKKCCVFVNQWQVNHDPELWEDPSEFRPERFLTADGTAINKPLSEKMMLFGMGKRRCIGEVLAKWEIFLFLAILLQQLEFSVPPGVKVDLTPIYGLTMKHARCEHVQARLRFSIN
Kind of series: Inhibition of CYP1A2 in human liver microsomes at 10 uM after 10 mins in presence of NADPH by LC-MS/MS analysis relative to control. The series is classed as ADME.

Another series addresses CYP3A4 (Homo sapiens, UniProt P08684). Kind of series: Inhibition of CYP3A4 in human liver microsomes at 10 uM after 10 mins in presence of NADPH by LC-MS/MS analysis relative to control. The series is classed as ADME.
Series [6] is described as follows: Half life in human liver microsomes at 1 uM preincubated for 10 mins followed by NADP addition after 20 mins by LC-MS/MS analysis. To be noted: liver microsomes. The series is classed as ADME, microsome.
In series [7] the target is DNA (cytosine-5)-methyltransferase 1 (Homo sapiens, UniProt P26358). Kind of series: Inhibition of human DNMT1 using polydeoxyinosine polydeoxycytosine DNA as substrate after 15 mins in presence of SAM by TR-FRET assay. In general terms: In TR-FRET formats the signal depends on donor and acceptor labels being close together.
Series [8] is described as follows: Growth inhibition of human CEMO1 cells after 48 hrs by MTS assay. The series is classed as functional.
The nature of series [9]: Metabolic stability in human liver microsomes assessed as parent compound remaining at 1 uM preincubated for 10 mins followed by NADP addition after 20 mins by LC-MS/MS analysis. The series is classed as ADME, microsome. Particulars: liver microsomes, read-out: Stability.
Series [10] can be described thus: Half life in RARG2-/-gammac-/- Balb/c mouse at 5 mg/kg, iv administered as single dose by LC-MS/MS analysis. In kind it is ADME, organism-based. To be noted: in vivo.
The test system of a further series is THLE-2. As to the kind of experiment: Growth inhibition of human THLE2 cells after 72 hrs by MTS assay. The series is classed as cell-based. Particulars: thle-2, 72 h.
The next series concerns the target CYP2C19 (Homo sapiens, UniProt P33261). As to the kind of experiment: Inhibition of CYP2C19 in human liver microsomes at 10 uM after 10 mins in presence of NADPH by LC-MS/MS analysis relative to control. In kind it is ADME.
Series [11] is described as follows: Growth inhibition of human LAL-CUN-2 cells after 48 hrs by MTS assay. The series is classed as functional.

Chain of DNA (cytosine-5)-methyltransferase 1 (P26358 whole entry): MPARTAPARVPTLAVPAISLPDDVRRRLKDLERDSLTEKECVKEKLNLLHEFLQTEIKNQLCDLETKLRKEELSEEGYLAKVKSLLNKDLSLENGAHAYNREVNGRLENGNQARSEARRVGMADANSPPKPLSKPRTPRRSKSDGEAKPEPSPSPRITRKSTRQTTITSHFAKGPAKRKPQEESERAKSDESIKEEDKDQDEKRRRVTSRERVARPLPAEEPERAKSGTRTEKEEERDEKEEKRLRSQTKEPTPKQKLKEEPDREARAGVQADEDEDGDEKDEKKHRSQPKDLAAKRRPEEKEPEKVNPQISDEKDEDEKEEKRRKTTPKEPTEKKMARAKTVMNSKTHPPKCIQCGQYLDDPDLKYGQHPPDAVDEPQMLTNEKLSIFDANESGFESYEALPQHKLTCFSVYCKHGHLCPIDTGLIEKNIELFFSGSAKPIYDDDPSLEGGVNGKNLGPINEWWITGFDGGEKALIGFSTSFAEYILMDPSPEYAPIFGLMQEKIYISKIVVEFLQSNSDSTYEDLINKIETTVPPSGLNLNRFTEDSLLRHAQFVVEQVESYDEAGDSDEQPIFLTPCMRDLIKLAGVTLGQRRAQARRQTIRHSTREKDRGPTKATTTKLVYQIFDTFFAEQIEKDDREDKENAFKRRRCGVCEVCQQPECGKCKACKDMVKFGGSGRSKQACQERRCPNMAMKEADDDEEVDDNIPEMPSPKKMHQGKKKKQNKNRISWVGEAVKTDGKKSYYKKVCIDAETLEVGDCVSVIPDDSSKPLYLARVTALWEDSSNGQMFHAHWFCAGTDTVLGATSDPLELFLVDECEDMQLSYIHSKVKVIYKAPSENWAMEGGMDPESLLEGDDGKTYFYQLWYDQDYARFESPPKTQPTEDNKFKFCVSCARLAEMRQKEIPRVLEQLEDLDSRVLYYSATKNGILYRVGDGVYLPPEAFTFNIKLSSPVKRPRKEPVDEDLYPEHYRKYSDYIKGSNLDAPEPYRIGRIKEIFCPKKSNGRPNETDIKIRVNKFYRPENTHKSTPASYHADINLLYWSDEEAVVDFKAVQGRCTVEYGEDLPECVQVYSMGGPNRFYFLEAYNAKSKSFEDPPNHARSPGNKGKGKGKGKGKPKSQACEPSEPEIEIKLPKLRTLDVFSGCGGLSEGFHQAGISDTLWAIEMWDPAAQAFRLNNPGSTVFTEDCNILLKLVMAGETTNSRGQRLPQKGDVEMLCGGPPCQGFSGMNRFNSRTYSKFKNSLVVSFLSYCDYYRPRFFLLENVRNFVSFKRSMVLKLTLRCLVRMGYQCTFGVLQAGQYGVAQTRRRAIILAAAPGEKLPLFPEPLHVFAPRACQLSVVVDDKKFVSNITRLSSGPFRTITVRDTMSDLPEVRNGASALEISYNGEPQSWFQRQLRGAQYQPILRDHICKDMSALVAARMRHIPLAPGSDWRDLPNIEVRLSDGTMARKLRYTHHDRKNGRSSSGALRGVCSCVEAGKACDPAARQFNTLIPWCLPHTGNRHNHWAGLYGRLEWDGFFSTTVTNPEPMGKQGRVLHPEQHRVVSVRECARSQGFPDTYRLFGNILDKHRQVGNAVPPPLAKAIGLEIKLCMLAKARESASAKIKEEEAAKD
Chain of CYP2C19 (P33261 whole entry): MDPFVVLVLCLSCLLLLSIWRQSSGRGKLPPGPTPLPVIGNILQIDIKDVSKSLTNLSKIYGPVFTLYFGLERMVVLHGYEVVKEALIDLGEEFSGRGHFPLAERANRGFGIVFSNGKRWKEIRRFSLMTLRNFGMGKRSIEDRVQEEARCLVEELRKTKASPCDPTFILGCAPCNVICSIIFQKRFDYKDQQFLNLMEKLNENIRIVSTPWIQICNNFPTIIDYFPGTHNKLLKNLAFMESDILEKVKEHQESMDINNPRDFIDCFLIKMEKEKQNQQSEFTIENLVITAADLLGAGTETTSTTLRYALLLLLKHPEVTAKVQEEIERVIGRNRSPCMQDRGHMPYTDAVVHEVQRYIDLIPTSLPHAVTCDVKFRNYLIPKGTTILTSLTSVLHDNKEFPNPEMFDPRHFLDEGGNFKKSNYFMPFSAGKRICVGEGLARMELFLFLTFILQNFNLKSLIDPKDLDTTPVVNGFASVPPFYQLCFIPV
Chain of CYP3A4 (P08684 whole entry): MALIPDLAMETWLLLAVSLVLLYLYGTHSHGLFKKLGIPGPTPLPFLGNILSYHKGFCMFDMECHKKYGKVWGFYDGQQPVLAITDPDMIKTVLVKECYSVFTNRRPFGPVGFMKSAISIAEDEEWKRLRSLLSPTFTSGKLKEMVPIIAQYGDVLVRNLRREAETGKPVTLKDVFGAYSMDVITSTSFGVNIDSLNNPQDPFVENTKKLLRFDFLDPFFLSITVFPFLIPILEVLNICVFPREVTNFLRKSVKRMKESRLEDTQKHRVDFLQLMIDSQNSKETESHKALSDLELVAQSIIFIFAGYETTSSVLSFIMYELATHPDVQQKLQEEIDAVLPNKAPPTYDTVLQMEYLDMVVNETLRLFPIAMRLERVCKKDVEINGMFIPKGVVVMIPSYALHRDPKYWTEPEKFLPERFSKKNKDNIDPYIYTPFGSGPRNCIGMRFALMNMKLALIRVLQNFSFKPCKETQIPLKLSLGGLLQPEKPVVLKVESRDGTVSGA

Molecule `COc1cc2c(NC3CCN(C4CC4)CC3)cc(-c3ccc(C)o3)nc2cc1OCCCN1CCCC1` showed a clearance in [1] of 15 mL/min/kg. Besides, the remaining at 20 min, 1 µM in [2] came to 15%; in series [9], 97%. Besides, the half-inhibitory concentration (IC50) in [3] is over 20 µM; in [7], 413 nM. Further, in series [4], the Vd came to 11.9 L/kg. In series [5], the Papp at 18 h, 50 µM amounted to 4.04 ×10⁻⁶ cm/s. Also, the inhibition at 10 min, 10 µM on CYP1A2 is 28.6%; at CYP3A4 it was 4.6%; at CYP2C19, 4%. This molecule also had a half-life at 1 µM in series [6] of over 144 min. Also, the results for the GI50 in [8] and in [11] were 453 nM and 1380 nM, respectively. The same molecule showed a half-life in [10] of 624 min. In the series on THLE-2, this molecule displayed an LC50 of 455 nM.

For orientation: clearance means a measure of how efficiently the substance is removed, as volume per time. High values mean efficient removal, low ones inefficient removal. In general, IC50 refers to the concentration that gives 50% inhibition. For orientation: inhibition means the percentage by which the read-out fell short of the control. As usually defined, the half-life is the time in which the quantity being followed falls by half. Low readings indicate rapid decline, high ones slow decline. Broadly, the GI50 is the concentration at which growth is held to half of that of the control. The low end stands for greater sensitivity of the cells, the high end for lower sensitivity of the cells. What is called LC50 is the concentration that kills 50% of the test population.
